# Reference: ChEMBL document CHEMBL1126957, “Structure-activity relationship within a series of pyrazolidinone antibacterial agents. 1. Effect of nuclear modification on in vitro activity” (1993)
# What was measured:
# Assay type in all cases: functional
# Klebsiella pneumoniae = experiment: In vitro antibacterial activity against Klebsiella X26
# Haemophilus influenzae = experiment: In vitro antibacterial activity against Haemophilus influenza C.L
# Serratia marcescens = experiment: In vitro antibacterial activity against Serratia X99
# Streptococcus pneumoniae = experiment: In vitro antibacterial activity against Streptococcus pneumoniae PARK
# Klebsiella aerogenes = experiment: In vitro antibacterial activity against Enterobacter aerogenes C32
# Pseudomonas aeruginosa = experiment: In vitro antibacterial activity against Pseudomonas X239
# Staphylococcus aureus = experiment: In vitro antibacterial activity against Staphylococcus aureus X1.1
# Escherichia coli = experiment: In vitro antibacterial activity against Escherichia coli EC14
MIC (Klebsiella pneumoniae) [µg/mL],MIC (Haemophilus influenzae) [µg/mL],MIC (Serratia marcescens) [µg/mL],MIC (Streptococcus pneumoniae) [µg/mL],MIC (Klebsiella aerogenes) [µg/mL],MIC (Pseudomonas aeruginosa) [µg/mL],MIC (Staphylococcus aureus) [µg/mL],MIC (Escherichia coli) [µg/mL],SMILES
8,32,32,8,64,> 128,> 128,32,CCCOC(=O)C1=C(C(=O)O)N2C(=O)C(NC(=O)/C(=N\OC)c3csc(N)n3)CN2C1 (configuration not stated)
0.125,0.5,0.125,0.25,0.25,> 128,32,0.06,CO/N=C(\C(=O)N[C@H]1CN2CC(S(C)(=O)=O)=C(C(=O)O)N2C1=O)c1csc(N)n1
8,32,16,8,32,> 128,> 128,16,CCOC(=O)C1=C(C(=O)O)N2C(=O)C(NC(=O)/C(=N\OC)c3csc(N)n3)CN2C1 (configuration not stated)
0.5,1,2,0.5,2,> 128,64,0.5,CO/N=C(\C(=O)NC1CN2CC(C#N)=C(C(=O)O)N2C1=O)c1csc(N)n1 (configuration not stated)
0.25,2,0.25,0.25,0.25,> 128,64,0.125,CO/N=C(\C(=O)NC1CN2CC(S(C)(=O)=O)=C(C(=O)O)N2C1=O)c1csc(N)n1 (configuration not stated)
1,8,4,1,2,> 128,32,2,CO/N=C(\C(=O)NC1CN2CC(C(C)=O)=C(C(=O)O)N2C1=O)c1csc(N)n1 (configuration not stated)
0.125,0.5,0.25,0.125,0.25,> 128,32,0.125,CCS(=O)(=O)C1=C(C(=O)O)N2C(=O)[C@@H](NC(=O)/C(=N\OC)c3csc(N)n3)CN2C1
0.125,0.5,1,0.125,1,> 128,32,0.5,CO/N=C(\C(=O)N[C@H]1CN2CC(S(=O)(=O)c3ccccc3)=C(C(=O)O)N2C1=O)c1csc(N)n1
> 128,> 128,> 128,> 128,> 128,> 128,> 128,> 128,CO/N=C(\C(=O)NC1CN2CCC(C(=O)OC)=C(C(=O)O)N2C1=O)c1csc(N)n1 (configuration not stated)
8,32,8,8,16,> 128,> 128,8,CO/N=C(\C(=O)NC1CN2CC(C(=O)OC)=C(C(=O)O)N2C1=O)c1csc(N)n1 (configuration not stated)
2,8,4,2,8,> 128,64,4,CCC(=O)C1=C(C(=O)O)N2C(=O)C(NC(=O)/C(=N\OC)c3csc(N)n3)CN2C1 (configuration not stated)
> 128,> 128,> 128,> 128,> 128,> 128,> 128,> 128,CO/N=C(\C(=O)NC1CN2CCC(C(C)=O)=C(C(=O)O)N2C1=O)c1csc(N)n1 (configuration not stated)
0.25,0.5,1,0.25,1,> 128,64,0.25,CO/N=C(\C(=O)N[C@H]1CN2CC(C#N)=C(C(=O)O)N2C1=O)c1csc(N)n1
64,64,64,64,64,> 128,128,64,CO/N=C(\C(=O)NC1CN2CC(C(=O)OCc3ccccc3)=C(C(=O)O)N2C1=O)c1csc(N)n1 (configuration not stated)
